Reference: PubChem BioAssay AID1918942 (Molecular Pharmacology Branch, DTP, NCI, 2023)

Test system: 743489-274-T-PDC complex spheroid viability
Assay: Anticancer human tumor 743489-274-T-PDC patient-derived renal cell carcinoma cell line growth inhibition
Settings: for IC50: curve of first compound; for viability, T/C: stronger effect = lower value
Summary of the method: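 Multicellular complex spheroids of tumor cells with human endothelial cells (HUVEC) and mesenchymal stem cells; the LSD1 inhibitor iadademstat was combined with standard-of-care or investigational agents. Top concentration at or near clinical Cmax, half-log dilutions; final DMSO ≤0.25%.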

[1] = second compound 0.1 µM, first compound 0.0316 µM
[2] = second compound 0.1 µM, first compound 0.1 µM
[3] = second compound 0.1 µM, first compound 0.316 µM
[4] = second compound 0.1 µM, first compound 1 µM
[5] = second compound 0.1 µM, first compound 3.16 µM
[6] = second compound 0.1 µM, first compound 10 µM
[7] = second compound 0.316 µM, first compound 0.0316 µM
[8] = second compound 0.316 µM, first compound 0.1 µM
[9] = second compound 0.316 µM, first compound 0.316 µM
[10] = second compound 0.316 µM, first compound 1 µM
[11] = second compound 0.316 µM, first compound 3.16 µM
[12] = second compound 0.316 µM, first compound 10 µM
[13] = second compound 1 µM, first compound 0.0316 µM
[14] = second compound 1 µM, first compound 0.1 µM
[15] = second compound 1 µM, first compound 0.316 µM
[16] = second compound 1 µM, first compound 1 µM
[17] = second compound 1 µM, first compound 3.16 µM
[18] = second compound 1 µM, first compound 10 µM
[19] = second compound 3.16 µM, first compound 0.0316 µM
[20] = second compound 3.16 µM, first compound 0.1 µM
[21] = second compound 3.16 µM, first compound 0.316 µM
[22] = second compound 3.16 µM, first compound 1 µM
[23] = second compound 3.16 µM, first compound 3.16 µM
[24] = second compound 3.16 µM, first compound 10 µM
[25] = second compound 10 µM, first compound 0.0316 µM
[26] = second compound 10 µM, first compound 0.1 µM
[27] = second compound 10 µM, first compound 0.316 µM
[28] = second compound 10 µM, first compound 1 µM
[29] = second compound 10 µM, first compound 3.16 µM
[30] = second compound 10 µM, first compound 10 µM
[31] = second compound 0.1 µM, first compound 0.00949 µM
[32] = second compound 0.1 µM, first compound 0.03 µM
[33] = second compound 0.1 µM, first compound 0.0949 µM
[34] = second compound 0.1 µM, first compound 0.3 µM
[35] = second compound 0.316 µM, first compound 0.00949 µM
[36] = second compound 0.316 µM, first compound 0.03 µM
[37] = second compound 0.316 µM, first compound 0.0949 µM
[38] = second compound 0.316 µM, first compound 0.3 µM
[39] = second compound 1 µM, first compound 0.00949 µM
[40] = second compound 1 µM, first compound 0.03 µM
[41] = second compound 1 µM, first compound 0.0949 µM
[42] = second compound 1 µM, first compound 0.3 µM
[43] = second compound 3.16 µM, first compound 0.00949 µM
[44] = second compound 3.16 µM, first compound 0.03 µM
[45] = second compound 3.16 µM, first compound 0.0949 µM
[46] = second compound 3.16 µM, first compound 0.3 µM
[47] = second compound 10 µM, first compound 0.00949 µM
[48] = second compound 10 µM, first compound 0.03 µM
[49] = second compound 10 µM, first compound 0.0949 µM
[50] = second compound 10 µM, first compound 0.3 µM
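Note: spheroids exposed to compounds for 7 days before readout.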
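Throughout, for viability, T/C: 100% = DMSO vehicle control wells.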

CC1(C)CCC(CN2CCN(c3ccc(C(=O)NS(=O)(=O)c4ccc(NCC5CCOCC5)c([N+](=O)[O-])c4)c(Oc4cnc5[nH]ccc5c4)c3)CC2)=C(c2ccc(Cl)cc2)C1 + NC1CCC(NC2CC2c2ccccc2)CC1 gave an IC50 (second compound 0.1 µM) greater than 10 µM, an IC50 (second compound 0.316 µM) greater than 10 µM and an IC50 (second compound 1 µM) greater than 10 µM. It also gave an IC50 (second compound 3.16 µM) greater than 10 µM, an IC50 (second compound 10 µM) greater than 10 µM and a viability, T/C [1] of 105%. It also gave a viability, T/C [2] of 124%, a viability, T/C [3] of 114% and a viability, T/C [4] of 105%. The viability, T/C [5] was 125%, the viability, T/C [6] was 124% and the viability, T/C [7] was 125%. It also gave a viability, T/C [8] of 122%, a viability, T/C [9] of 116% and a viability, T/C [10] of 109%. It also gave a viability, T/C [11] of 117%, a viability, T/C [12] of 123% and a viability, T/C [13] of 125%. It also gave a viability, T/C [14] of 114%, a viability, T/C [15] of 119% and a viability, T/C [16] of 126%. For the same compound, the viability, T/C [17] was 134%, the viability, T/C [18] was 136% and the viability, T/C [19] was 114%. For the same compound, the viability, T/C [20] was 130%, the viability, T/C [21] was 134% and the viability, T/C [22] was 114%. For the same compound, the viability, T/C [23] was 117%, the viability, T/C [24] was 111% and the viability, T/C [25] was 128%. The viability, T/C [26] was 117%, the viability, T/C [27] was 118% and the viability, T/C [28] was 122%. It also gave a viability, T/C [29] of 129% and a viability, T/C [30] of 102%.
CC1COCCN1c1cc(C2(S(C)(=N)=O)CC2)nc(-c2ccnc3[nH]ccc23)n1 (stereo not given) + NC1CCC(NC2CC2c2ccccc2)CC1 showed an IC50 (second compound 0.1 µM) greater than 10 µM, an IC50 (second compound 0.316 µM) greater than 10 µM and an IC50 (second compound 1 µM) greater than 10 µM. The IC50 (second compound 3.16 µM) was greater than 10 µM, the IC50 (second compound 10 µM) was greater than 10 µM and the viability, T/C [1] was 108%. For the same compound, the viability, T/C [2] was 106%, the viability, T/C [3] was 108% and the viability, T/C [4] was 116%. The viability, T/C [5] was 93.7%, the viability, T/C [6] was 92.1% and the viability, T/C [7] was 99.6%. It also gave a viability, T/C [8] of 111%, a viability, T/C [9] of 107% and a viability, T/C [10] of 108%. For the same compound, the viability, T/C [11] was 112%, the viability, T/C [12] was 98.6% and the viability, T/C [13] was 103%. It also gave a viability, T/C [14] of 123%, a viability, T/C [15] of 115% and a viability, T/C [16] of 113%. The viability, T/C [17] was 99.8%, the viability, T/C [18] was 94.9% and the viability, T/C [19] was 112%. It also gave a viability, T/C [20] of 103%, a viability, T/C [21] of 107% and a viability, T/C [22] of 106%. It also gave a viability, T/C [23] of 98.5%, a viability, T/C [24] of 92.7% and a viability, T/C [25] of 112%. The viability, T/C [26] was 103%, the viability, T/C [27] was 111% and the viability, T/C [28] was 121%. For the same compound, the viability, T/C [29] was 106% and the viability, T/C [30] was 94.6%.
CCN(c1cc(-c2ccc(CN3CCOCC3)cc2)cc(C(=O)NCc2c(C)cc(C)[nH]c2=O)c1C)C1CCOCC1 + NC1CCC(NC2CC2c2ccccc2)CC1 was tested, and the IC50 (second compound 0.1 µM) was greater than 3 µM, the IC50 (second compound 0.316 µM) was greater than 3 µM and the IC50 (second compound 1 µM) was greater than 3 µM. The IC50 (second compound 3.16 µM) was greater than 3 µM, the IC50 (second compound 10 µM) was greater than 3 µM and the viability, T/C [31] was 104%. The viability, T/C [32] was 103%, the viability, T/C [33] was 101% and the viability, T/C [34] was 102%. The viability, T/C (second compound 0.1 µM, first compound 0.949 µM) was 107%, the viability, T/C (second compound 0.1 µM, first compound 3 µM) was 104% and the viability, T/C [35] was 91.1%. It also gave a viability, T/C [36] of 98.5%, a viability, T/C [37] of 97.4% and a viability, T/C [38] of 96.2%. For the same compound, the viability, T/C (second compound 0.316 µM, first compound 0.949 µM) was 104%, the viability, T/C (second compound 0.316 µM, first compound 3 µM) was 102% and the viability, T/C [39] was 99.8%. For the same compound, the viability, T/C [40] was 106%, the viability, T/C [41] was 101% and the viability, T/C [42] was 105%. It also gave a viability, T/C (second compound 1 µM, first compound 0.949 µM) of 104%, a viability, T/C (second compound 1 µM, first compound 3 µM) of 106% and a viability, T/C [43] of 107%. It also gave a viability, T/C [44] of 106%, a viability, T/C [45] of 110% and a viability, T/C [46] of 105%. The viability, T/C (second compound 3.16 µM, first compound 0.949 µM) was 113%, the viability, T/C (second compound 3.16 µM, first compound 3 µM) was 111% and the viability, T/C [47] was 109%. The viability, T/C [48] was 107%, the viability, T/C [49] was 108% and the viability, T/C [50] was 95.7%. For the same compound, the viability, T/C (second compound 10 µM, first compound 0.949 µM) was 100% and the viability, T/C (second compound 10 µM, first compound 3 µM) was 104%.
Compound Nc1ncn(C2CC(O)C(CO)S2)c(=O)n1 (stereo not given) + NC1CCC(NC2CC2c2ccccc2)CC1 has an IC50 (second compound 0.1 µM) greater than 0.3 µM, an IC50 (second compound 0.316 µM) greater than 0.3 µM and an IC50 (second compound 1 µM) greater than 0.3 µM. The IC50 (second compound 3.16 µM) was greater than 0.3 µM, the IC50 (second compound 10 µM) was greater than 0.3 µM and the viability, T/C (second compound 0.1 µM, first compound 0.000949 µM) was 116%. The viability, T/C (second compound 0.1 µM, first compound 0.003 µM) was 95.5%, the viability, T/C [31] was 104% and the viability, T/C [32] was 91.1%. The viability, T/C [33] was 89.6%, the viability, T/C [34] was 80.5% and the viability, T/C (second compound 0.316 µM, first compound 0.000949 µM) was 106%. The viability, T/C (second compound 0.316 µM, first compound 0.003 µM) was 105%, the viability, T/C [35] was 120% and the viability, T/C [36] was 110%. For the same compound, the viability, T/C [37] was 95.6%, the viability, T/C [38] was 103% and the viability, T/C (second compound 1 µM, first compound 0.000949 µM) was 118%. It also gave a viability, T/C (second compound 1 µM, first compound 0.003 µM) of 112%, a viability, T/C [39] of 107% and a viability, T/C [40] of 97.6%. The viability, T/C [41] was 87.6%, the viability, T/C [42] was 87% and the viability, T/C (second compound 3.16 µM, first compound 0.000949 µM) was 112%. It also gave a viability, T/C (second compound 3.16 µM, first compound 0.003 µM) of 116%, a viability, T/C [43] of 96.8% and a viability, T/C [44] of 108%. It also gave a viability, T/C [45] of 88.4%, a viability, T/C [46] of 102% and a viability, T/C (second compound 10 µM, first compound 0.000949 µM) of 113%. The viability, T/C (second compound 10 µM, first compound 0.003 µM) was 125%, the viability, T/C [47] was 101% and the viability, T/C [48] was 104%. For the same compound, the viability, T/C [49] was 93.4% and the viability, T/C [50] was 98%.
